Key:
prostate line LNCap = test: In vitro cell culture growth assay (MTS), LNCap; format: cell-based; conditions: Homo sapiens, LNCaP, 72 h, LNCap cells, three days after drug treatment
Procedure, shortened: (§1)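 Growth is reported as percent of vehicle-treated control grown in the same plate, with viability determined by metabolic conversion of MTS dye and absorbance read at 490 nm. Compounds were applied one day after plating and left for three days.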

PI3K [1] = target: T1, PI3K (Homo sapiens, UniProt P48736); test: Fluorescence polarization assay for PI3K; format: biochemical; conditions: PI3 Kinase γ; read-out: PI3 Kinase γ IC50
T1 construct: PI3 Kinase γ IC50; other: PI3 Kinase γ; other: PI3 Kinase γ isoform, fluorescence polarization
T1 sequence (P48736 whole entry, canonical isoform): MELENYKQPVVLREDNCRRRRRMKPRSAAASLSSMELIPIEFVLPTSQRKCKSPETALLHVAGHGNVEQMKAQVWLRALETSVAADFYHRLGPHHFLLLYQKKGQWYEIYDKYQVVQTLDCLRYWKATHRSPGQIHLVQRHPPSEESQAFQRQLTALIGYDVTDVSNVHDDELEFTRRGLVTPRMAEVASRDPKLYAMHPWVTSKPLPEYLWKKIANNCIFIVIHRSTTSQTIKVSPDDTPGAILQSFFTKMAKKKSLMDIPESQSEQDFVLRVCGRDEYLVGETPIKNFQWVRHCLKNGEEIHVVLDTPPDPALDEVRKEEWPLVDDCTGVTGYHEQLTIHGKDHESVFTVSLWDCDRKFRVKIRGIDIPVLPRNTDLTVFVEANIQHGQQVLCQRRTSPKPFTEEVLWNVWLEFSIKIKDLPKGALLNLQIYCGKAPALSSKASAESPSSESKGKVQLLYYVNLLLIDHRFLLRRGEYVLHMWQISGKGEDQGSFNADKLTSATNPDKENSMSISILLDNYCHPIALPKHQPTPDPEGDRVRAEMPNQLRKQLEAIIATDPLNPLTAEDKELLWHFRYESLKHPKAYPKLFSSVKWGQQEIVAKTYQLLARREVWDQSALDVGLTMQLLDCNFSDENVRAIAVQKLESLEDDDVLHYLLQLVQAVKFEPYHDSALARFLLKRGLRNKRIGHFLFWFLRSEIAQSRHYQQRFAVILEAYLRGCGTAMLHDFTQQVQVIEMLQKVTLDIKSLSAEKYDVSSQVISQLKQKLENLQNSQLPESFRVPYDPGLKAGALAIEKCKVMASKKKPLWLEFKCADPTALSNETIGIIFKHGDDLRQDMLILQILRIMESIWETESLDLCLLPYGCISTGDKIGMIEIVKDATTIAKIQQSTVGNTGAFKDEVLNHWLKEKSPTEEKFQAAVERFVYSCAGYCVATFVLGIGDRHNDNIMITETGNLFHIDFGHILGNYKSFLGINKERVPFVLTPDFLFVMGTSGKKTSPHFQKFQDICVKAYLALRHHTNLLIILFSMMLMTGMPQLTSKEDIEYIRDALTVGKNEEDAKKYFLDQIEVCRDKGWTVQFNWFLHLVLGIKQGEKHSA
Procedure, shortened: (§2)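 PI3K was preincubated with compound (final DMSO 1%), and the reaction was started with PIP2/ATP substrate and run 30–60 min. It was stopped with a detector mix giving 10 nM red probe and 70 nM GST-GRP.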

PI3K [2] = target: T2, PI3K (Homo sapiens, UniProt P42336); test: Fluorescence polarization assay for PI3K; format: biochemical; conditions: PI3 Kinase α; read-out: PI3 Kinase α IC50
T2 construct: PI3 Kinase α IC50; other: PI3 Kinase α; other: PI3 Kinase α isoform, fluorescence polarization
T2 sequence (P42336 whole entry, canonical isoform): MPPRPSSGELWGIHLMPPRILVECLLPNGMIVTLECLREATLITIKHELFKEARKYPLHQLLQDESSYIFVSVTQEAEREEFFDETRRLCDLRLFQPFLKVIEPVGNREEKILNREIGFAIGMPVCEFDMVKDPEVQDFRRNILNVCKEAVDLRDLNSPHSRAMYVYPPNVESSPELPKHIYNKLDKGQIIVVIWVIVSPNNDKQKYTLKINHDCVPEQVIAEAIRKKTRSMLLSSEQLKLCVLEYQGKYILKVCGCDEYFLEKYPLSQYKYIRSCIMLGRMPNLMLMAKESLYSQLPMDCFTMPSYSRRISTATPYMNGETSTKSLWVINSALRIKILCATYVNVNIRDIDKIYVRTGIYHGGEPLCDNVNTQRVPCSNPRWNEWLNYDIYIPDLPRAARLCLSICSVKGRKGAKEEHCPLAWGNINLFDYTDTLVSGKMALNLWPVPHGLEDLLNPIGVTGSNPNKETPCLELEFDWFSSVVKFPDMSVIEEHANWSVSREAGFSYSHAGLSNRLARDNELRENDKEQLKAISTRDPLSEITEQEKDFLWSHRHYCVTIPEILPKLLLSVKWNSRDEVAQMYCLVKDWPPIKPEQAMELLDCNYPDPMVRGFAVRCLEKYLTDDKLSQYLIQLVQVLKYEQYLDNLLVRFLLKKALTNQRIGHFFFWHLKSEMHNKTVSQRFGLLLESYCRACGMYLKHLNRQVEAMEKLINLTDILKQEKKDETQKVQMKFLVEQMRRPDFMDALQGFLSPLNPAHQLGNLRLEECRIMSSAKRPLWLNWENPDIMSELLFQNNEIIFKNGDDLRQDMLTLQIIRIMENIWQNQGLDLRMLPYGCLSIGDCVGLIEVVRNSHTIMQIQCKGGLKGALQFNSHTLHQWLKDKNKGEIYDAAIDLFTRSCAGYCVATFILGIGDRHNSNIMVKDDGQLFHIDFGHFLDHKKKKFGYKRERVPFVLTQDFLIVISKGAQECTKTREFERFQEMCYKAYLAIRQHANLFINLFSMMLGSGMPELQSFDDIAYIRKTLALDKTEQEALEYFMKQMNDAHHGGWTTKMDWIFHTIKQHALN
Procedure, shortened: as §2

breast line MDA468 = test: In vitro cell culture growth assay (MTS), MDA468; format: cell-based; conditions: Homo sapiens, 72 h, MDA468 cells, three days after drug treatment
Procedure, shortened: as §1

Human mTOR (FLAG-TOR) = target: T3, Human mTOR (FLAG-TOR) (Homo sapiens, UniProt P42345); test: Human mTOR kinase assay with purified enzyme, DELFIA format; format: biochemical
T3 construct: FLAG
Procedure, shortened: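 Purified FLAG-mTOR in HEPES pH 7.4 buffer with 10 mM MnCl2 was preincubated with inhibitor and reacted 2 h at room temperature with His6-S6K substrate, then stopped with EDTA/EGTA. Phospho-T389 S6K detected by DELFIA with Eu-labelled antibody (40 ng/mL) after plate capture; inhibition computed from signal.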

IC50 (prostate line LNCap) [nM] | IC50 (PI3K [1]) [nM] | IC50 (PI3K [2]) [nM] | IC50 (Human mTOR (FLAG-TOR)) [nM] | Compound | IC50 (breast line MDA468) [nM]
2800 | > 10000 | 8040 | > 800 | COC(=O)N1CCC(n2ncc3c(N4CC5CCC(C4)O5)nc(-c4ccc(NC(=O)OCCN5CCN(C)CC5)cc4)nc32)CC1 [Example 118, methyl 4-{6-[4-({[2-(4-methylpiperazin-1-yl)ethoxy]carbonyl}amino)phenyl]-4-(8-oxa-3-azabicyclo[3.2.1]oct-3-yl)-1H-pyrazolo[3,4-d]pyrimidin-1-yl}piperidine-1-carboxylate] | 4700
180 | > 10000 | 4670 | 3.6 | COC(=O)Nc1ccc(-c2nc(N3CC4CCC(C3)O4)c3cnn(C4CCN(C(=O)OC)CC4)c3n2)cc1 [Example 119, methyl 4-[6-{4-[(methoxycarbonyl)amino]phenyl}-4-(8-oxa-3-azabicyclo[3.2.1]oct-3-yl)-1H-pyrazolo[3,4-d]pyrimidin-1-yl]piperidine-1-carboxylate] | 1200
950 | > 10000 | 7920 | 69 | COC(=O)N1CCC(n2ncc3c(N4CC5CCC(C4)O5)nc(-c4ccc(N)cc4)nc32)CC1 [Example 120, methyl 4-[6-(4-aminophenyl)-4-(8-oxa-3-azabicyclo[3.2.1]oct-3-yl)-1H-pyrazolo[3,4-d]pyrimidin-1-yl]piperidine-1-carboxylate] | 6900
2 | > 10000 | 7650 | 0.5 | O=C(Nc1ccc(-c2nc(N3CC4CCC(C3)O4)c3cnn(C4CCC5(CC4)OCCO5)c3n2)cc1)OCCO [Example 121, 2-hydroxyethyl {4-[1-(1,4-dioxaspiro[4.5]dec-8-yl)-4-(8-oxa-3-azabicyclo[3.2.1]oct-3-yl)-1H-pyrazolo[3,4-d]pyrimidin-6-yl]phenyl}carbamate] | 63
190 | > 10000 | > 10000 | 4 | O=C(Nc1ccc(-c2nc(N3CC4CCC(C3)O4)c3cnn(C4CCC5(CC4)OCCO5)c3n2)cc1)OCCCO [Example 122, 3-hydroxypropyl {4-[1-(1,4-dioxaspiro[4.5]dec-8-yl)-4-(8-oxa-3-azabicyclo[3.2.1]oct-3-yl)-1H-pyrazolo[3,4-d]pyrimidin-6-yl]phenyl}carbamate] | 1800
1 | > 10000 | 4580 | 0.26 | CCNC(=O)Nc1ccc(-c2nc(N3CC4CCC(C3)O4)c3cnn(C4CCC5(CC4)OCCO5)c3n2)cc1 [Example 123, 1-{4-[1-(1,4-dioxaspiro[4.5]dec-8-yl)-4-(8-oxa-3-azabicyclo[3.2.1]oct-3-yl)-1H-pyrazolo[3,4-d]pyrimidin-6-yl]phenyl}-3-ethylurea] | 9
1 | > 10000 | 5130 | 0.225 | O=C(NCCF)Nc1ccc(-c2nc(N3CC4CCC(C3)O4)c3cnn(C4CCC5(CC4)OCCO5)c3n2)cc1 [Example 124, 1-{4-[1-(1,4-dioxaspiro[4.5]dec-8-yl)-4-(8-oxa-3-azabicyclo[3.2.1]oct-3-yl)-1H-pyrazolo[3,4-d]pyrimidin-6-yl]phenyl}-3-(2-fluoroethyl)urea] | 20
8 | > 10000 | 1350 | 0.235 | O=C(NCCO)Nc1ccc(-c2nc(N3CC4CCC(C3)O4)c3cnn(C4CCC5(CC4)OCCO5)c3n2)cc1 [Example 125, 1-{4-[1-(1,4-dioxaspiro[4.5]dec-8-yl)-4-(8-oxa-3-azabicyclo[3.2.1]oct-3-yl)-1H-pyrazolo[3,4-d]pyrimidin-6-yl]phenyl}-3-(2-hydroxyethyl)urea] | 40
2 | > 10000 | 12000 | 0.22 | O=C(Nc1ccc(-c2nc(N3CC4CCC(C3)O4)c3cnn(C4CCC5(CC4)OCCO5)c3n2)cc1)NC1CC1 [Example 126, 1-cyclopropyl-3-{4-[1-(1,4-dioxaspiro[4.5]dec-8-yl)-4-(8-oxa-3-azabicyclo[3.2.1]oct-3-yl)-1H-pyrazolo[3,4-d]pyrimidin-6-yl]phenyl}urea] | 58
4 | > 10000 | 353 | 0.155 | O=C(Nc1ccccc1)Nc1ccc(-c2nc(N3CC4CCC(C3)O4)c3cnn(C4CCC5(CC4)OCCO5)c3n2)cc1 [Example 127, 1-{4-[1-(1,4-dioxaspiro[4.5]dec-8-yl)-4-(8-oxa-3-azabicyclo[3.2.1]oct-3-yl)-1H-pyrazolo[3,4-d]pyrimidin-6-yl]phenyl}-3-phenylurea] | 18
< 1 | 1930 | 220 | 0.125 | O=C(Nc1ccncc1)Nc1ccc(-c2nc(N3CC4CCC(C3)O4)c3cnn(C4CCC5(CC4)OCCO5)c3n2)cc1 [Example 128, 1-{4-[1-(1,4-dioxaspiro[4.5]dec-8-yl)-4-(8-oxa-3-azabicyclo[3.2.1]oct-3-yl)-1H-pyrazolo[3,4-d]pyrimidin-6-yl]phenyl}-3-pyridin-4-ylurea] | 1
800 | > 10000 | > 10000 | 10.4 | O=C(Nc1ccc(-c2nc(N3CC4CCC(C3)O4)c3cnn(C4CCC5(CC4)OCCO5)c3n2)cc1)OCC(F)(F)F [Example 129, 2,2,2-trifluoroethyl {4-[1-(1,4-dioxaspiro[4.5]dec-8-yl)-4-(8-oxa-3-azabicyclo[3.2.1]oct-3-yl)-1H-pyrazolo[3,4-d]pyrimidin-6-yl]phenyl}carbamate] | 4900
45 | > 10000 | > 10000 | 1.5 | O=C(Nc1ccc(-c2nc(N3CC4CCC(C3)O4)c3cnn(C4CCC5(CC4)OCCO5)c3n2)cc1)OCCF [Example 130, 2-fluoroethyl {4-[1-(1,4-dioxaspiro[4.5]dec-8-yl)-4-(8-oxa-3-azabicyclo[3.2.1]oct-3-yl)-1H-pyrazolo[3,4-d]pyrimidin-6-yl]phenyl}carbamate] | 800
> 60000 | > 10000 | > 10000 | 635 | O=C1OCCN1c1ccc(-c2nc(N3CC4CCC(C3)O4)c3cnn(C4CCC5(CC4)OCCO5)c3n2)cc1 [Example 131, 3-{4-[1-(1,4-dioxaspiro[4.5]dec-8-yl)-4-(8-oxa-3-azabicyclo[3.2.1]oct-3-yl)-1H-pyrazolo[3,4-d]pyrimidin-6-yl]phenyl}-1,3-oxazolidin-2-one] | > 60000
580 | > 10000 | > 10000 | 15.5 | OCCNc1ccc(-c2nc(N3CC4CCC(C3)O4)c3cnn(C4CCC5(CC4)OCCO5)c3n2)cc1 [Example 132, 2-({4-[1-(1,4-dioxaspiro[4.5]dec-8-yl)-4-(8-oxa-3-azabicyclo[3.2.1]oct-3-yl)-1H-pyrazolo[3,4-d]pyrimidin-6-yl]phenyl}amino)ethanol] | 5000
90 | 7640 | 905 | 18.5 | CN(C)CCNC(=O)Nc1ccc(-c2nc(N3CC4CCC(C3)O4)c3cnn(C4CCC5(CC4)OCCO5)c3n2)cc1 [Example 133, 1-[2-(dimethylamino)ethyl]-3-{4-[1-(1,4-dioxaspiro[4.5]dec-8-yl)-4-(8-oxa-3-azabicyclo[3.2.1]oct-3-yl)-1H-pyrazolo[3,4-d]pyrimidin-6-yl]phenyl}urea] | 700
390 | > 10000 | 2440 | 17.5 | CN1CCN(CCNC(=O)Nc2ccc(-c3nc(N4CC5CCC(C4)O5)c4cnn(C5CCC6(CC5)OCCO6)c4n3)cc2)CC1 [Example 134, 1-{4-[1-(1,4-dioxaspiro[4.5]dec-8-yl)-4-(8-oxa-3-azabicyclo[3.2.1]oct-3-yl)-1H-pyrazolo[3,4-d]pyrimidin-6-yl]phenyl}-3-[2-(4-methylpiperazin-1-yl)ethyl]urea] | 4000
1 | 1710 | 146 | 0.268 | CN1CCN(c2ccc(NC(=O)Nc3ccc(-c4nc(N5CC6CCC(C5)O6)c5cnn(C6CCC7(CC6)OCCO7)c5n4)cc3)cc2)CC1 [Example 135, 1-{4-[1-(1,4-dioxaspiro[4.5]dec-8-yl)-4-(8-oxa-3-azabicyclo[3.2.1]oct-3-yl)-1H-pyrazolo[3,4-d]pyrimidin-6-yl]phenyl}-3-[4-(4-methylpiperazin-1-yl)phenyl]urea] | 1
40 | > 10000 | 3900 | 6.25 | COC(=O)Nc1ccc(-c2nc(N3CC4CCC(C3)O4)c3cnn(C4CCC(=O)CC4)c3n2)cc1 [Example 136, methyl {4-[4-(8-oxa-3-azabicyclo[3.2.1]oct-3-yl)-1-(4-oxocyclohexyl)-1H-pyrazolo[3,4-d]pyrimidin-6-yl]phenyl}carbamate] | 1100
200 | > 10000 | 6660 | 3.75 | COC(=O)Nc1ccc(-c2nc(N3CC4CCC(C3)O4)c3cnn(C4CCC(O)CC4)c3n2)cc1 (stereo not shown) [Example 137, methyl {4-[1-(4-hydroxycyclohexyl)-4-(8-oxa-3-azabicyclo[3.2.1]oct-3-yl)-1H-pyrazolo[3,4-d]pyrimidin-6-yl]phenyl}carbamate] | 1700

— patent US8129371B2, “Thienopyrimidine and pyrazolopyrimidine compounds and their use as mTOR kinase and PI3 kinase inhibitors” (Wyeth LLC, priority 2007, dated 2012)
